Data set [1] deals with Mortierella elongata AG77. In words: Carbon source utilisation in Biolog 96-well plates, formazan formation after tetrazolium addition. The class given is cell-based. The conditions noted are these: for Metabolized: Metabolized = more formazan formation than a control containing no carbon source, observed visually at 2 h, 24 h, 148 h; for Carbon sources that Mortierella elongata AG77 can metabolize: summary of Table 3. The essentials: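 Scoring was by eye at 2, 24 and 148 h after tetrazolium chloride went into wells preincubated 24 h at 21 °C. Wells held lyophilised candidate carbon or nitrogen sources in pH 5.5 mineral medium lacking that nutrient, inoculated with 3 mm PDA-grown mycelial plugs. Formazan above the no-carbon control counted as metabolised and below it as toxic.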

Data set [2] has as its system Mortierella elongata AG77. The data set can be described thus: Nitrogen source utilisation in Biolog 96-well plates, formazan formation after tetrazolium addition. The class given is cell-based. The conditions noted are these: for Metabolized: Metabolized = more formazan formation than a control containing no nitrogen source, observed visually at 2 h, 24 h, 148 h; for Nitrogen sources that Mortierella elongata AG77 can metabolize: text summary of Table 4. Here is the method:
Two 300 mL volumes of growth medium comprising 1 g/L KH2PO4, 1 g/L MgSO4 7H2O, 0.1 g/L CaCl2, 0.02 g/L FeNaEDTA, 0.1 g/L NaCl, and either 1 g/L NH4NO3 or 20 g/L sucrose were prepared. […] Aliquots of 200 μL of carbon-free medium or nitrogen-free medium were pipetted into each well of a set of 96-well plates previously prepared with lyophilized putative carbon or nitrogen sources (Biolog Inc., Hayward, Calif.). Inocula were prepared by perforating a culture of Mortierella elongata AG77 grown on 20 g/L potato dextrose agar with a 3 mm diameter cork borer and separating the surface mycelial mat from the solid growth medium using tweezers. Each well was inoculated with one inoculum. Cultures were incubated at 21° C. for 24 hours to allow metabolic changes to stabilize, and then 100 μL of 3 g/L tetrazolium chloride in water was added to each well.
Conclusions were based on rate and intensity of formazan formation using the 3-(4,5-dimethylthiazol-2-yl)-2,5-diphenyltetrazolium bromide ([…]) assay. “Metabolized” indicates more formazan formation than a control containing no nitrogen source, and “Toxic” indicates less formazan formation than a control containing no nitrogen source, “Metabolized” and “Toxic” assignments are mutually exclusive. In this example, a compound may be “Metabolized” or “Toxic,” but not both.

Setting [3] is: compound as carbon source, Toxic = less formazan formation than a control containing no carbon source.
Setting [4] is: compound as nitrogen source, Toxic = less formazan formation than a control containing no nitrogen source.

Residues, ends and D or L forms follow the SMILES beside them.

On to `NCCO` [2-Aminoethanol], for which the Metabolized entry in data set [1] (compound as carbon source) is “yes”; in data set [2] (compound as nitrogen source), “no”. Besides, the Toxic entry in data set [1] (setting [3]) and in data set [2] (setting [4]) was “no” throughout. Further, the “Carbon sources that Mortierella elongata AG77 can metabolize” value in data set [1] is given as “can metabolize”.

`CC(N)=O` [Acetamide]: the Metabolized entry in data set [1] (compound as carbon source) and in data set [2] (compound as nitrogen source) was “no” each time. The Toxic entry in data set [2] (setting [4]) was “no”.

With `Nc1ncnc2c1ncn2[C@@H]1O[C@H](CO)[C@@H](O)[C@H]1O` [Adenosine], the Toxic result in data set [1] and in data set [2] was “no” throughout. For the same compound, the Metabolized entry is given as “yes” in data set [1] (compound as carbon source) and “no” in data set [2] (compound as nitrogen source). The “Carbon sources that Mortierella elongata AG77 can metabolize” value in data set [1] is on record as “can metabolize”.

On to `C[C@@H](N)C(=O)O` [D-Alanine], for which the Toxic result in data set [1] and in data set [2] was “no” in each case. Also, the Metabolized result in data set [1] (compound as carbon source) and in data set [2] (compound as nitrogen source) was “yes” each time. For the same compound, in data set [1], the “Carbon sources that Mortierella elongata AG77 can metabolize” value is listed as “can metabolize”. The “Nitrogen sources that Mortierella elongata AG77 can metabolize” value in data set [2] is given as “can metabolize”.

For the compound `N[C@H](CC(=O)O)C(=O)O` [D-Aspartic Acid], the Toxic entry in data set [1] and in data set [2] was “no” throughout. For the same compound, the Metabolized entry was “yes” in data set [1] (compound as carbon source) and “no” in data set [2] (compound as nitrogen source). For the same compound, in data set [1], the “Carbon sources that Mortierella elongata AG77 can metabolize” value is reported as “can metabolize”.

For the compound `N[C@H]1C(O)O[C@H](CO)[C@@H](O)[C@@H]1O` (stereo partly drawn) [D-Glucosamine], the Toxic result in data set [1] and in data set [2] was “no” each time. Besides, the values for the Metabolized entry in data set [1] (compound as carbon source) and in data set [2] (compound as nitrogen source) were “yes” and “no”, respectively. The “Carbon sources that Mortierella elongata AG77 can metabolize” value in data set [1] is “can metabolize”.

`N[C@H](CO)C(=O)O` [D-Serine]: the Toxic entry in data set [1] and in data set [2] was “no” throughout. For the same compound, the Metabolized result in data set [1] (compound as carbon source) and in data set [2] (compound as nitrogen source) was “no” each time.

As for `NC(=O)[C@@H](O)[C@@H](O)[C@H](O)[C@@H](O)C=O` [Glucuronamide], the Metabolized entry in data set [1] (compound as carbon source) was “yes”; in data set [2] (compound as nitrogen source) it was “no”. In addition, the Toxic result in data set [1] (setting [3]) and in data set [2] (setting [4]) was “no” in each case. The “Carbon sources that Mortierella elongata AG77 can metabolize” value in data set [1] is “can metabolize”.

As for `NCC(=O)O` [Glycine], the Toxic entry in data set [1] and in data set [2] was “no” each time. Further, the Metabolized result in data set [1] (compound as carbon source) is recorded as “no”; in data set [2] (compound as nitrogen source), “yes”. The “Nitrogen sources that Mortierella elongata AG77 can metabolize” value in data set [2] is recorded as “can metabolize”.

With `NCC(=O)N[C@@H](CCC(=O)O)C(=O)O` [Glycyl-L-Glutamic Acid] (H-Gly-Glu-OH), the Metabolized result in data set [1] (compound as carbon source) and in data set [2] (compound as nitrogen source) was “no” throughout. The Toxic entry in data set [1] (setting [3]) and in data set [2] (setting [4]) was “no” in each case.

For `OC[C@H]1O[C@@H](n2cnc3c(O)ncnc32)[C@H](O)[C@@H]1O` [Inosine], the Metabolized result is on record as “yes” in data set [1] (compound as carbon source) and “no” in data set [2] (compound as nitrogen source). Further, the Toxic entry in data set [1] (setting [3]) and in data set [2] (setting [4]) was “no” throughout. Also, in data set [1], the “Carbon sources that Mortierella elongata AG77 can metabolize” value is “can metabolize”.

Consider `C[C@H](N)C(=O)O` [L-Alanine], for which the Toxic result in data set [1] and in data set [2] was “no” throughout. Moreover, the Metabolized entry in data set [1] (compound as carbon source) is recorded as “no”; in data set [2] (compound as nitrogen source) it was “yes”. In data set [2], the “Nitrogen sources that Mortierella elongata AG77 can metabolize” value is given as “can metabolize”.

Consider `C[C@H](N)C(=O)NCC(=O)O` [L-Alanyl-Glycine] (H-Ala-Gly-OH), for which the Toxic result in data set [1] and in data set [2] was “no” each time. For the same compound, the Metabolized entry in data set [1] (compound as carbon source) and in data set [2] (compound as nitrogen source) was “no” in each case.

As for `CCC[C@H](N)C(=O)O` [α-Amino-N-Valeric Acid], in data set [2] (compound as nitrogen source), the Metabolized result is given as “no”. Moreover, the Toxic result in data set [2] (setting [4]) is “no”.

As to `NCCCCCC(=O)O` [ε-Amino-N-Caproic Acid], the Metabolized result in data set [2] (compound as nitrogen source) is “no”. Moreover, the Toxic result in data set [2] (setting [4]) is “no”.

The record behind these values is patent publication US20200325505A1, “FILAMENTOUS FUNGI CAPABLE OF PRODUCING VERY LONG CHAIN FATTY ACIDS” (UT-Battelle, LLC, priority 2019, published 2020).
